Laboratory results reported in patent US20250154525A1, “PLANT VIRUS MOVEMENT PROTEINS AND METHODS OF USING SAME” (Molecular Transfer, Inc., priority 2016, published 2025).

Legend:
HuVec Cells [1] = assay: GFP plasmid transfection with DOTMA/DOPE plus surface ligand peptide, fluorescent plate reader (Example 1); format: cell-based; conditions: DOTMA/DOPE + peptide linked to R12 or K16; EF1Alpha eGFP plasmid; 42 hours
In short: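 HuVEC cells in 96 well plates at 70% confluence were transfected with EF1Alpha eGFP plasmid using a 1:1 molar DOTMA/DOPE lipid mixed with a surface ligand peptide carrying a covalently attached nucleic acid binding moiety. Complexes formed for 10 minutes, 0.01 mL went to each well, cells were incubated 42 hours at 37° C., and fluorescence was read on a plate reader.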

NL-1 iPS Cells = assay: as above; format: cell-based; conditions: DOTMA/DOPE + peptide linked to R12 or K16; EF1Alpha eGFP plasmid; 42 hours
Jurkat Cells = assay: as above; format: cell-based; conditions: DOTMA/DOPE + peptide linked to R12 or K16; EF1Alpha eGFP plasmid; 42 hours
In short: (§1)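 DOTMA/DOPE (1:1 molar) plus peptide bearing a poly-Arg or poly-Lys tag was complexed 10 min with EF1alpha eGFP plasmid in OptiMEM, then added to 70%-confluent cells (0.01 mL fibroblasts; 0.02 mL C2C12, Jurkat). After 42 h at 37 °C, GFP was read by plate reader and compared with DOTMA without ligand.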

HeLa Cells [2] = assay: as above; format: cell-based; conditions: DOTMA/DOPE + peptide linked to R12 or K16; EF1Alpha eGFP plasmid; 42 hours
Human Fibroblast Cells = assay: as above; format: cell-based; conditions: DOTMA/DOPE + peptide linked to R12 or K16; EF1Alpha eGFP plasmid; 42 hours
In short: as §1

C2C12 Cells = assay: as above; format: cell-based, mouse; conditions: DOTMA/DOPE + peptide linked to R12 or K16; EF1Alpha eGFP plasmid; 42 hours
In short: as §1

HeLa Cells [3] = assay: GFP plasmid transfection with DOTMA/DOPE plus plant virus movement protein derived peptides (Example 2); format: cell-based; conditions: 1-6 μL of transfection reagents
Procedure: (§2) Cells were plated to so that on the day of transfection the cells were 70% confluent in 96 well tissue culture plates. A DOMTA/DOPE Lipid solution (1:1 molar ratio) at 2 mg/mL in water were mixed with an equal volume of plant virus movement protein derived peptides that had the nucleic acid binding moiety RRRRRRRRRRRR (SEQ ID NO:109) or KKKKKKKKKKKKKKKK (SEQ ID NO: 102) covalently linked to the N-terminus, or C-terminus of each peptide during peptide synthesis. Peptides were at 2 mg/mL in water. The DOTMA/DOPE and the plant virus movement peptide solution the was diluted 1 to 1 (v/v) in water. DOMTA/DOPE/PEPTIDE solutions were added to 0.1 mL of a plasmid DNA solution (EF1Alpha eGFP plasmid) at 10 μg/mL in OptiMEM.
(§3) All solutions were at room temperature. A volume of 0.2 mL of a 10 μg/mL solution of DNA was aliquoted into each well of a non-tissue cultured treated plate. 1-6 μL of transfection reagents were added to DNA solutions respectively. The transfection reagent and DNA solution was mixed by pipetting up and down twice. Transfection complexes were formed for 10 minutes. After 10 minutes, 0.01 or 0.02 mL of the transfection complex was added to cells. HuVEC, HeLa, human adult keratinocytes, human primary adult fibroblast, and A549 cells all respectively received 0.01 mL of the transfection complex. Human skeletal muscle cells, mouse C2C12 cells, and Jurkat, cells received 0.02 mL of the transfection complex. Cells were incubated for 42 hours at 37° C. at 5% CO2. Plates were read on a fluorescent plate reader. Cells were also examined visually under a microscope to assess the extent of transfection (in terms of the percent of cells transfected) with a fluorescent microscope. Other modes of analysis, for example quantification with B-galactosidase or luciferase reports plasmids can also be used.

HuVec Cells [4] = assay: as above; format: cell-based; conditions: 42 hours
Procedure: as §2, §3

[5] = tested on: Human Primary Fibroblast Cells; assay: as above; format: cell-based; conditions: 42 hours
Procedure: as §2, §3

HeLa Cells [6] = assay: GFP transfection with DOTMA/SEQ ID NO: 72 (fusogenic peptide)/peptide compared with Lipofectamine 2000; format: cell-based
In short: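 DOTMA/DOPE (1:1 molar) lipid mixed with polyarginine- or polylysine-tagged cell-surface-ligand peptide, complexed 10 min with EF1alpha eGFP plasmid at 10 μg/mL in OptiMEM, fusogenic peptide at 0.1 mg/mL final; HeLa cells ~70% confluent given 0.01 mL complex. GFP read by fluorescence plate reader and microscopy (% cells transfected) after 42 h at 37° C; Lipofectamine 2000 as comparator.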

some examined cell types = assay: Summary of Example 1: transfection expression and % cells transfected over the no peptide control; format: cell-based; conditions: on some examined cell types
In short: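 Cells at 70% confluence received DNA complexes of EF1Alpha eGFP plasmid with DOTMA/DOPE (1:1) plus oligo-Arg- or oligo-Lys-tagged peptide ligands, formed 10 min at room temperature. After 42 h at 37 °C, 5% CO2, GFP read by plate reader and % transfected cells judged microscopically, relative to lipid without peptide.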

[7] = value column 1 of 6, head not given, 1 µL transfection reagent
[8] = value column 3 of 6, head not given, 3 µL transfection reagent
[9] = value column 4 of 6, head not given, 4 µL transfection reagent
[10] = 0.1 μL of DOTMA/SEQ ID NO: 72/Peptide in well of a 96 well plate
[11] = 0.2 μL of DOTMA/SEQ ID NO: 72/Peptide in well of a 96 well plate
[12] = 0.3 μL of DOTMA/SEQ ID NO: 72/Peptide in well of a 96 well plate
[13] = 0.4 μL of DOTMA/SEQ ID NO: 72/Peptide in well of a 96 well plate

Molecule	Relative Fluorescence of Transfection of HuVec Cells (RF) (HuVec Cells [1])	Relative Fluorescence of Transfection of NL-1 iPS Cells (RF) (NL-1 iPS Cells)	Relative Fluorescence of Transfection of Jurkat Cells (RF) (Jurkat Cells)	Relative Fluorescence of Transfection of HeLa Cells (RF) (HeLa Cells [2])	Relative Fluorescence of Transfection of Human Fibroblast Cells (RF) (Human Fibroblast Cells)	Relative Fluorescence of Transfection of C2C12 Cells (RF) (C2C12 Cells)	Relative Fluorescence of Transfection of Hela Cells (HeLa Cells [3]; 2 µL transfection reagent)	Relative Fluorescence of Transfection of Hela Cells (HeLa Cells [3]; 5 µL transfection reagent)	Relative Fluorescence of Transfection of Hela Cells (HeLa Cells [3]; [7])	Relative Fluorescence of Transfection of Hela Cells (HeLa Cells [3]; [8])	Relative Fluorescence of Transfection of Hela Cells (HeLa Cells [3]; [9])	Relative Fluorescence of Transfection of HuVEC Cells (HuVec Cells [4]; Transfection Agent 1 μl) [Rf]	Relative Fluorescence of Transfection of HuVEC Cells (HuVec Cells [4]; Transfection Agent 1.5 μl) [Rf]	Relative Fluorescence of Transfection of HuVEC Cells (HuVec Cells [4]; Transfection Agent 2 μl) [Rf]	Relative Fluorescence of Transfection of HuVEC Cells (HuVec Cells [4]; Transfection Agent 3 μl) [Rf]	Relative Fluorescence DOTMA/SEQ ID NO: 72/Peptide, HeLa Cells (RF) (HeLa Cells [6]; [10])	Relative Fluorescence DOTMA/SEQ ID NO: 72/Peptide, HeLa Cells (RF) (HeLa Cells [6]; [11])	Relative Fluorescence DOTMA/SEQ ID NO: 72/Peptide, HeLa Cells (RF) (HeLa Cells [6]; [12])	Relative Fluorescence DOTMA/SEQ ID NO: 72/Peptide, HeLa Cells (RF) (HeLa Cells [6]; [13])	transfection expression and % cells transfected over the no peptide control (some examined cell types)	other results
CCCCCCCC/C=C\CCCCCCCCOCC(C[N+](C)(C)C)OCCCCCCCC/C=C\CCCCCCCC.[Cl-] (stereo not shown) [DOTMA, N-[1-(2,3-dioleyloxy)propyl]-N,N,N-trimethylammonium chloride, reference compound]	12230	8965	9084	7551	3397	1289	4782	9694	4424	5377	6992										
544 (GVKRSYGAARGDDRRRPNVVAPYKAWRRRRRRRRRRRR) [compound 544]							19151	12759	10683	19877	16908	25788	28622	31245	34718						Relative Fluorescence of Transfection of HuVEC Cells (HuVec Cells [4]; Transfection Agent 4 μl): 31159 Rf; Relative Fluorescence of Transfection of HuVEC Cells (HuVec Cells [4]; Transfection Agent 6 μl): 28639 Rf; Relative Fluorescence of Transfection of Human Primary Fibroblast Cells ([5]; Transfection Agent 1 μl): 31368 Rf; Relative Fluorescence of Transfection of Human Primary Fibroblast Cells ([5]; Transfection Agent 1.5 μl): 39311 Rf; Relative Fluorescence of Transfection of Human Primary Fibroblast Cells ([5]; Transfection Agent 2 μl): 37634 Rf; Relative Fluorescence of Transfection of Human Primary Fibroblast Cells ([5]; Transfection Agent 3 μl): 32892 Rf; Relative Fluorescence of Transfection of Human Primary Fibroblast Cells ([5]; Transfection Agent 4 μl): 31428 Rf; Relative Fluorescence of Transfection of Human Primary Fibroblast Cells ([5]; Transfection Agent 6 μl): 28367 Rf
547 (SYVKTVPNRTRTYIKGGGGGRRRRRRRRRRRR) [compound 547]							9491	8829	5899	10275	11241	24554	26172	28255	32494						Relative Fluorescence of Transfection of HuVEC Cells (HuVec Cells [4]; Transfection Agent 4 μl): 31180 Rf; Relative Fluorescence of Transfection of HuVEC Cells (HuVec Cells [4]; Transfection Agent 6 μl): 26775 Rf; Relative Fluorescence of Transfection of Human Primary Fibroblast Cells ([5]; Transfection Agent 1 μl): 29141 Rf; Relative Fluorescence of Transfection of Human Primary Fibroblast Cells ([5]; Transfection Agent 1.5 μl): 33704 Rf; Relative Fluorescence of Transfection of Human Primary Fibroblast Cells ([5]; Transfection Agent 2 μl): 35175 Rf; Relative Fluorescence of Transfection of Human Primary Fibroblast Cells ([5]; Transfection Agent 3 μl): 35563 Rf; Relative Fluorescence of Transfection of Human Primary Fibroblast Cells ([5]; Transfection Agent 4 μl): 33951 Rf; Relative Fluorescence of Transfection of Human Primary Fibroblast Cells ([5]; Transfection Agent 6 μl): 30539 Rf
109 (RRRRRRRRRRRR) [compound 109]							5578	8007	4157	6606	8520	24603	25735	25421	26641						Relative Fluorescence of Transfection of HuVEC Cells (HuVec Cells [4]; Transfection Agent 4 μl): 26529 Rf; Relative Fluorescence of Transfection of HuVEC Cells (HuVec Cells [4]; Transfection Agent 6 μl): 25907 Rf; Relative Fluorescence of Transfection of Human Primary Fibroblast Cells ([5]; Transfection Agent 1 μl): 28368 Rf; Relative Fluorescence of Transfection of Human Primary Fibroblast Cells ([5]; Transfection Agent 1.5 μl): 30373 Rf; Relative Fluorescence of Transfection of Human Primary Fibroblast Cells ([5]; Transfection Agent 2 μl): 29858 Rf; Relative Fluorescence of Transfection of Human Primary Fibroblast Cells ([5]; Transfection Agent 3 μl): 29895 Rf; Relative Fluorescence of Transfection of Human Primary Fibroblast Cells ([5]; Transfection Agent 4 μl): 30941 Rf; Relative Fluorescence of Transfection of Human Primary Fibroblast Cells ([5]; Transfection Agent 6 μl): 29386 Rf
351 (LNRQELFPFG) [compound 351]	15379	24646	9730	12279	8061	3530										7678	11499	10575	8791	increased transfection expression and the % cells transfected	
328 (NWRHISYITRFG) [compound 328]	3614	8611	4770	32528	5641	5507										11037	12229	10801	10951	increased transfection expression and the % cells transfected	
452 (CNYYSNSYSFWLASLNPER) [compound 452]	1841	10349	2554	13888	2779	21798										6276	12671	12047	10918	increased transfection expression and the % cells transfected	
503 (TAGSCLRKFSTMRRRRRRRRRRRR) [compound 503]	12123	19014	9411	25368	13085	3973										12827	20006	17101	16206	increased transfection expression and the % cells transfected	
